PMC3187749, “Discovery of Diverse Small Molecule Chemotypes with Cell-Based PKD1 Inhibitory Activity” (PLoS ONE, 2011)

Columns and labels:
PKD3 = biological target: T1, PKD3 (Homo sapiens, UniProt O94806); assay: Radiometric PKD3 in vitro kinase assay; format: biochemical; conditions: preliminary in vitro data
T1 sequence (O94806 1-890): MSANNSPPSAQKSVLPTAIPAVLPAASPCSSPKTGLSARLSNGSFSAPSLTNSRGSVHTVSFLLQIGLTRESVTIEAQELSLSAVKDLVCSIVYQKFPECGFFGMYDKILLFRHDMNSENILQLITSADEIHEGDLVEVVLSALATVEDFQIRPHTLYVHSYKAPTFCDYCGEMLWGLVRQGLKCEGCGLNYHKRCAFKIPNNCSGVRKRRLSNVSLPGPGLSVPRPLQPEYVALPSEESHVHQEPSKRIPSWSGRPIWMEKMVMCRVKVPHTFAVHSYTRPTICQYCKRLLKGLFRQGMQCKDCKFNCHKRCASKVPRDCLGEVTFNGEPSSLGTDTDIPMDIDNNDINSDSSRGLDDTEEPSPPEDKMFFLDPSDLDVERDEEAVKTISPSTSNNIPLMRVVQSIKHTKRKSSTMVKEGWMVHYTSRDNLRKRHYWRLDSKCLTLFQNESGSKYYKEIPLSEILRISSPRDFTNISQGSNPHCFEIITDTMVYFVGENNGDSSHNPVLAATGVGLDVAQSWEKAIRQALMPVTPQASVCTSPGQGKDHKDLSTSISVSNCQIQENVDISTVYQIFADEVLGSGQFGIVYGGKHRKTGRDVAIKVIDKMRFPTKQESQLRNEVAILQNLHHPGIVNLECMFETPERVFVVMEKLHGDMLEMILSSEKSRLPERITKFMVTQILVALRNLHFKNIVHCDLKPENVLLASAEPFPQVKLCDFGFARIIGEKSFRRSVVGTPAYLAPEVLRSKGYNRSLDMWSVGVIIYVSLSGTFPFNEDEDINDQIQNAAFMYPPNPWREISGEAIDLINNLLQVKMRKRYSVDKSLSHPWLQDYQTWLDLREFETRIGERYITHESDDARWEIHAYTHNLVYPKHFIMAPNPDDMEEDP
Protocol: Kinase reactions were initiated with the addition of ATP (50 µM ATP, 1.0 µCi γ-^33P-ATP; Perkin Elmer, Boston, MA) and incubated for 20 min at 30°C. Twenty-five µL of the reaction was spotted onto Whatman P81 filter paper (Whatman Inc., Clifton, NJ). Filter papers were then washed three times in 0.5% phosphoric acid, air-dried, and counted using an LS6500 multi-purpose scintillation counter (Beckman Coulter, Fullerton, CA). IC50 determinations were performed using GraphPad Prism software 5.0. Radiometric PKD2 and PKD3 in vitro kinase assays were performed as previously described.

[1] = biological target: T2, endogenous PKD1 (Ser916 phosphorylation) in LNCaP prostate cancer cells (Homo sapiens, UniProt Q15139); assay: Western blot of PMA-induced phospho-Ser916-PKD1 in LNCaP cells; format: cell-based
T2 construct: phosphorylation of endogenously expressed PKD1 Ser^916; endogenous in cells; host or cells: LNCaP prostate cancer cells
T2 sequence (Q15139 1-912): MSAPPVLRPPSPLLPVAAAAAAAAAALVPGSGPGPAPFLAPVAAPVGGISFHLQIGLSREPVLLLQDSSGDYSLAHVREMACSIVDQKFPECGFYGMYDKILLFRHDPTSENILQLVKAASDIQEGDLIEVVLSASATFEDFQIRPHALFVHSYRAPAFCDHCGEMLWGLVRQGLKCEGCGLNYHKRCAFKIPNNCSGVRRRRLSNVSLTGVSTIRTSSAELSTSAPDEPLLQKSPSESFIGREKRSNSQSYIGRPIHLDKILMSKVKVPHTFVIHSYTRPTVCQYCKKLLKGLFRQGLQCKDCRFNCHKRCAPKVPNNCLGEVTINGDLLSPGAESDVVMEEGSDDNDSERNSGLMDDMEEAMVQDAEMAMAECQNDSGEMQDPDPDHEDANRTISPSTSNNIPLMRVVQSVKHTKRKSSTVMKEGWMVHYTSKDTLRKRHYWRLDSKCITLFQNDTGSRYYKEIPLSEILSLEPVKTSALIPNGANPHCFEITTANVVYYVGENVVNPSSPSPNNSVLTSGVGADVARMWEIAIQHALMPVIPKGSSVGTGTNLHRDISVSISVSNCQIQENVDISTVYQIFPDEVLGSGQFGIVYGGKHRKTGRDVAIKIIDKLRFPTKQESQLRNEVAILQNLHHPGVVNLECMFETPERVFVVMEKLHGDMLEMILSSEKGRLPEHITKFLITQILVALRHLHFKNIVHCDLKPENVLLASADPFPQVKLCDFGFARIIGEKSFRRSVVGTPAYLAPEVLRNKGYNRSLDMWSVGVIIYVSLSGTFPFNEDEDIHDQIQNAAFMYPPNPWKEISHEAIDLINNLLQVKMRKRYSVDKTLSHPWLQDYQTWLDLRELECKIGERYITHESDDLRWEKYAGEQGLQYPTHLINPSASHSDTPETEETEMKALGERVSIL
Protocol: Briefly, prostate cancer cells (LNCaP) were exposed to test compounds. Cells were lysed in buffer (200 mM Tris-HCl, pH 7.4, 100 µM 4-(2-aminoethyl) benzenesulfonyl fluoride, 1 mM EGTA, and 1% Triton X-100) and cell lysates were subjected to SDS-PAGE then electrotransferred to nitrocellulose membranes. Membranes were blocked with 5% nonfat milk in Tris-buffered saline. Membranes were probed with a primary antibody then followed by a secondary anti-mouse or anti-rabbit secondary antibody conjugated to horseradish peroxidase (1∶1000, Bio-Rad). Bands were visualized by the enhanced chemiluminescence Western blotting detection system (Amersham Biosciences). The primary antibodies included p-S916-PKD1 antibody (Millipore) and GAPDH (Enzo Life Sciences, Plymouth Meeting, PA).
[…] Whole cell lysates were immunoblotted for phosphorylated Ser^916-PKD1 with GAPDH serving as a loading control.

Compound: O=C(Nc1ccc(CN2CCOCC2)cc1)c1ccc(-c2cccc(Cl)c2)o1 [CID 2011756, 5-(3-chlorophenyl)-N-[4-(morpholin-4-ylmethyl)phenyl]furan-2-carboxamide]
- IC50 (PKD3): 0.7 ± 0.2 µM
- EC50 ([1]; LNCaP cells, PMA stimulation, n = 3, read-out: Cellular EC50 (phospho-Ser916-PKD1)): 10 ± 0.7 µM
- Concentration dependence of inhibition of PMA-induced endogenous PKD1 activity ([1]; LNCaP cells, Western blot): concentration-dependent inhibition
- inhibition at 50 µM ([1]; LNCaP, read-out: Inhibition of phosphorylation of Ser916-PKD1): > 50%
